Laboratory results reported in PubChem BioAssay AID1918934 (Molecular Pharmacology Branch, DTP, NCI, 2023).

Tested on: 292921-168-R-J2-PDC complex spheroid viability
Experiment: Anticancer human tumor 292921-168-R-J2-PDC patient-derived pancreatic carcinoma cell line growth inhibition
Details: for IC50: curve of first compound; for viability, T/C: stronger effect = lower value
Source text: Multicellular complex tumor spheroid response to LSD1 Inhibitor Iadademstat in combination with a variety of drugs and investigational agents in selected tumor cell lines
The current study was undertaken to assess response to LSD1 inhibitors in combination with standard-of-care drugs and investigational agents in solid tumor complex spheroid models as well as in the K-562 leukemia. Complex spheroids include a stromal component modeled by human endothelial cells (HUVEC) and fibroblasts modeled by human mesenchymal stem cells (MSCs). The concentration ranges selected for each drug and investigational agent were based upon clinically achievable concentrations if the clinical Cmax of the agent was known.
Compounds. The drugs and investigational agents used in this study are listed on Table 1. All of the agents used, including staurosporine (NSC755774) and gemcitabine (NSC613327), were obtained from the Developmental Therapeutics Program, NCI. FDA-approved anticancer drugs are available from the NCI at http://dtp.nci.nih.gov/branches/dscb/oncology_drugset_explanation.html. Drugs and investigational agents were >95% pure by proton nuclear magnetic resonance (NMR) and liquid chromatography/mass spectrometry (LC/MS). Stock solutions were prepared at 400x in DMSO, stored at -70 degrees C, and diluted in fresh medium prior to their use. The final concentration of DMSO in cell culture wells never exceeded 0.25% (v/v). The FDA-approved anticancer drug set is available from the Developmental Therapeutics Program at https://dtp.cancer.gov/organization/dscb/obtaining/available_plates.htm. All drugs and investigational agents were tested over a range starting from a high concentration at or near the clinical Cmax and decreasing in half-log increments. If the clinical Cmax for an agent had not been determined, the highest concentration tested was 10 microM.
Cell Lines. The patient-derived cancer cell (PDC) lines: 292921-168-R-J2-PDC, K24384-001-R-PDC, and 521955-158-R2-J5-PDC pancreatic carcinomas, 556581-035-R-J1 ovarian carcinoma, 324938-238-R-J1-PDC, 855422-203-R-J1-PDC and 883617-216-R-J1-PDC urothelial bladder carcinomas, 743489-274-T-PDC renal cell carcinoma, 138582-R-J1 Merkel cell tumor, K60290-347-R-J1 and K57222-313-R-J1-PDC glioblastomas, 653999-131-R-J2-PDC, LG0703-F948-PDC, and 349418-098-R-PDC non-small cell lung carcinomas, 885512-296-R-J2-PDC, 171881-019-R-J1-PDC breast carcinomas and 186277-243-T-J2-PDC and 233499-124-R-J2-PDC colon carcinomas were obtained from the NCI Patient-Derived Models Repository (PDMR, https://pdmr.cancer.gov). The established cell lines NCI/ADR-RES (RRID:CVCL_14520 and OVCAR-5 (RRID:CVCL_1628) ovarian carcinomas, 786-O (RRID:CVCL_1051) and A498 (RRID:CVCL_A498) renal cell carcinoma, NCI-H211 (ATCC, cat. CRL-5824; RRID:CVCL_1529), NCI-H196 (ATCC, cat. CRL-5823, RRID:CVCL_1509), SW 1271 (ATCC, cat. CRL-2177, RRID:CVCL_1716) and NCI-H1876 (ATCC, cat. CRL-5902, RRID:CVCL_1503) small cell lung carcinomas, MDA-MB-231 (RRID:CVCL_0062) and MDA-MB-468 (RRID:CVCL_0419)breast carcinomas (10-12). Pooled donor human umbilical vein endothelial cells (HUVEC, Lonza, cat. CC-2519) and human mesenchymal stem cells (hMSC, Lonza, cat. PT-2501) were purchased from Lonza (Walkersville, MD).
Cell Culture. All cells were maintained in an incubator at 37 degrees C and 5% CO2 with 95% humidity. The PDC lines were cultured according to standard operating procedures established by the NCI PDMR (https://pdmr.cancer.gov). Briefly all PDCs were thawed and cultured in Matrigel-coated flasks prepared with a working solution of 1X Ham's F-12 nutrient mix, without supplementation (Invitrogen, Waltham, MA, cat. 11765054), 100 U/mL penicillin-streptomycin (Invitrogen, cat. 15140122), and 2.5% Matrigel (Corning Inc., Corning, NY, cat. 354248) for the first three passages. […]

[1] = second compound 0.1 µM, first compound 0.000316 µM
[2] = second compound 0.1 µM, first compound 0.001 µM
[3] = second compound 0.1 µM, first compound 0.00316 µM
[4] = second compound 0.1 µM, first compound 0.01 µM
[5] = second compound 0.1 µM, first compound 0.0316 µM
[6] = second compound 0.1 µM, first compound 0.1 µM
[7] = second compound 0.316 µM, first compound 0.000316 µM
[8] = second compound 0.316 µM, first compound 0.001 µM
[9] = second compound 0.316 µM, first compound 0.00316 µM
[10] = second compound 0.316 µM, first compound 0.01 µM
[11] = second compound 0.316 µM, first compound 0.0316 µM
[12] = second compound 0.316 µM, first compound 0.1 µM
[13] = second compound 1 µM, first compound 0.000316 µM
[14] = second compound 1 µM, first compound 0.001 µM
[15] = second compound 1 µM, first compound 0.00316 µM
[16] = second compound 1 µM, first compound 0.01 µM
[17] = second compound 1 µM, first compound 0.0316 µM
[18] = second compound 1 µM, first compound 0.1 µM
[19] = second compound 3.16 µM, first compound 0.000316 µM
[20] = second compound 3.16 µM, first compound 0.001 µM
[21] = second compound 3.16 µM, first compound 0.00316 µM
[22] = second compound 3.16 µM, first compound 0.01 µM
[23] = second compound 3.16 µM, first compound 0.0316 µM
[24] = second compound 3.16 µM, first compound 0.1 µM
[25] = second compound 10 µM, first compound 0.000316 µM
[26] = second compound 10 µM, first compound 0.001 µM
[27] = second compound 10 µM, first compound 0.00316 µM
[28] = second compound 10 µM, first compound 0.01 µM
[29] = second compound 10 µM, first compound 0.0316 µM
[30] = second compound 10 µM, first compound 0.1 µM
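Note: seven day compound exposure before luminescent viability read.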
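Throughout, for viability, T/C: 100% = DMSO vehicle control wells.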

Row | Compound | IC50 (second compound 0.1 µM) | IC50 (second compound 0.316 µM) | IC50 (second compound 1 µM) | IC50 (second compound 3.16 µM) | IC50 (second compound 10 µM) | viability, T/C [1] | viability, T/C [2] | viability, T/C [3] | viability, T/C [4] | viability, T/C [5] | viability, T/C [6] | viability, T/C [7] | viability, T/C [8] | viability, T/C [9] | viability, T/C [10] | viability, T/C [11] | viability, T/C [12] | viability, T/C [13] | viability, T/C [14] | viability, T/C [15] | also measured
1 | CC(C)CC(NC(=O)C(Cc1ccccc1)NC(=O)c1cnccn1)B(O)O (stereo not given) + NC1CC1c1ccc(-c2cccc(O)c2)cc1 | < 0.316 nM | < 0.316 nM | < 0.316 nM | < 0.316 nM | < 0.316 nM | 21.2% | 1.11% | 0.47% | 0.39% | 0.14% | 0.17% | 18.8% | 1.91% | 0.24% | 0.18% | 0.18% | 0.17% | 16.9% | 1.68% | 0.21% | viability, T/C [16]: 0.19%; viability, T/C [17]: 0.22%; viability, T/C [18]: 0.17%; viability, T/C [19]: 15.4%; viability, T/C [20]: 0.61%; viability, T/C [21]: 0.17%; viability, T/C [22]: 0.14%; viability, T/C [23]: 0.46%; viability, T/C [24]: 0.31%; viability, T/C [25]: 12.3%; viability, T/C [26]: 0.8%; viability, T/C [27]: 0.29%; viability, T/C [28]: 0.54%; viability, T/C [29]: 0.45%; viability, T/C [30]: 0.25%
2 | CC(C)CC(NC(=O)CNC(=O)c1cc(Cl)ccc1Cl)B1OC(=O)CC(CC(=O)O)(C(=O)O)O1 (stereo not given) + NC1CC1c1ccc(-c2cccc(O)c2)cc1 | 5.69 nM | 5.54 nM | 4.78 nM | 4.64 nM | 3.67 nM | 88.2% | 93.4% | 81.5% | 19.6% | 3.61% | 1.34% | 80% | 84.3% | 80.4% | 17.9% | 3.08% | 1.87% | 66.2% | 74% | 68.2% | viability, T/C [16]: 17.2%; viability, T/C [17]: 3.17%; viability, T/C [18]: 1.85%; viability, T/C [19]: 70.7%; viability, T/C [20]: 71.2%; viability, T/C [21]: 67.8%; viability, T/C [22]: 14.5%; viability, T/C [23]: 2.89%; viability, T/C [24]: 1.44%; viability, T/C [25]: 61.6%; viability, T/C [26]: 67.1%; viability, T/C [27]: 55.4%; viability, T/C [28]: 11.8%; viability, T/C [29]: 2.07%; viability, T/C [30]: 0.75%
